In patent US20060069132A1, “Azolecarboxamide herbicides” (priority 2004, published 2006):

Experiments:
kochia = assay: Test C pre-/postemergence herbicide test; format: in vivo, Kochia scoparia
How it was run: (§1)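 Pre- and postemergence application, solvent/surfactant formulation; post at 1- to 4-leaf stage (2–18 cm). Greenhouse 12–14 d. Visual rating vs controls, 0 = no effect, 100 = complete control.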

barnyardgrass = assay: Test C flooded paddy test; format: in vivo, Echinochloa crus-galli; details: for Plant response rating, Barnyardgrass: visual rating after 12 to 14 days
How it was run: (§2)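 Visual rating, 0 (no effect) to 100 (complete control), vs. controls at 12–14 d in greenhouse. Postemergence: 1–4-leaf plants, 2–18 cm. Paddy: flooded, barnyardgrass at 2-leaf stage.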

velvetleaf = assay: Test C pre-/postemergence herbicide test; format: in vivo, Abutilon theophrasti
How it was run: as §1

common ragweed = assay: Test C pre-/postemergence herbicide test; format: in vivo, Ambrosia elatior; parameters: key to Plant response rating, Ragweed: 0 = no effect, 100 = complete control
How it was run: as §1

pigweed = assay: Test C pre-/postemergence herbicide test; format: in vivo, Amaranthus retroflexus
How it was run: as §1

rice = assay: Test B pre-/postemergence herbicide test; format: in vivo, Oryza sativa
How it was run: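 Pre: seeds sown, then sprayed. Post: 1–4-leaf plants (2–18 cm) sprayed at the same time. Paddy: flooded, treated at 2-leaf stage. Formulation: non-phytotoxic solvent with surfactant. Greenhouse 13–15 days; visual 0–100 score relative to controls.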

large crabgrass = assay: Test C pre-/postemergence herbicide test; format: in vivo, Digitaria sanguinalis
How it was run: as §1

chickweed = assay: Test C postemergence herbicide test; format: in vivo, Stellaria media; details: for Chickweed plant response rating: 500 g ai/ha
How it was run: as §2

goosegrass = assay: Test C pre-/postemergence herbicide test; format: in vivo, Eleusine indica
How it was run: as §1

giant foxtail = assay: Test A pre-/postemergence herbicide test; format: in vivo, Setaria faberi; details: for Plant response rating, Foxtail, Giant: Postemergence; for Foxtail, Giant plant response rating: Preemergence
How it was run: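 Visual injury rating on a 0–100 scale (0 no effect, 100 complete control) versus untreated controls, about ten days after treatment in greenhouse. Pre: directed soil spray onto seeded sandy loam. Post: spray to runoff on plants 2–10 cm tall at one- to two-leaf stage.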

[1] = 62 g ai/ha, preemergence, scale 0 to 100
[2] = 125 g ai/ha, scale 0 (no effect) to 100 (complete control), visual, 12 to 14 days, preemergence
[3] = 250 g ai/ha, scale 0-100, preemergence
[4] = 500 g ai/ha, scale 0 to 100 (0 no effect, 100 complete control), visual, 12 to 14 days, preemergence
[5] = Postemergence, 500 g ai/ha, scale 0 to 100
[6] = Postemergence, 250 g ai/ha, scale 0 to 100, 0 no effect, 100 complete control
[7] = postemergence, 125 g ai/ha, scale 0 to 100
[8] = postemergence, 62 g ai/ha, scale 0 to 100
[9] = 62 g ai/ha, scale 0 to 100 (0 no effect, 100 complete control)
[10] = 500 g ai/ha, scale 0 to 100 (0 no effect, 100 complete control)
[11] = 250 g ai/ha, scale 0 to 100 (0 no effect, 100 complete control), visual, 12 to 14 days, preemergence
[12] = Postemergence, 125 g ai/ha, scale 0 to 100, 0 no effect, 100 complete control
[13] = Preemergence, 500 g ai/ha, scale 0 to 100, 0 no effect, 100 complete control
[14] = 2000 g ai/ha, 0 to 100 scale, 0 no effect, 100 complete control

## CCn1nc(C(C)(C)C)cc1C(=O)Nc1cccc(OC(F)F)c1 [Compound 332]
kochia; [1]
  Plant response rating, Kochia: 100
kochia; [2]
  Plant response rating, Kochia: 100
kochia; [3]
  Plant response rating, Kochia: 100
kochia; [4]
  Plant response rating, Kochia: 100
kochia; [5]
  Kochia plant response rating: 100
kochia; [6]
  Plant response rating, Kochia: 95
kochia; [7]
  Plant response rating, Kochia: 90
kochia; [8]
  Plant response rating, Kochia: 80
barnyardgrass; [9]
  Barnyardgrass plant response rating: 5
barnyardgrass; 125 g ai/ha, scale 0 to 100 (0 no effect, 100 complete control)
  Barnyardgrass plant response rating: 25
barnyardgrass; 250 g ai/ha, scale of 0 to 100, 0 is no effect, 100 is complete control
  Barnyardgrass plant response rating: 50
barnyardgrass; [10]
  Plant response rating, Barnyardgrass: 60
velvetleaf; [1]
  Plant response rating, Velvetleaf: 40
velvetleaf; [3]
  Plant response rating, Velvetleaf: 45
velvetleaf; [4]
  Plant response rating, Velvetleaf: 70
velvetleaf; [5]
  Velvetleaf plant response rating: 90
velvetleaf; [6]
  Plant response rating, Velvetleaf: 85
velvetleaf; [7]
  Plant response rating, Velvetleaf: 60
velvetleaf; [8]
  Plant response rating, Velvetleaf: 40
Common ragweed; [1]
  Plant response rating, Ragweed: 0
Common ragweed; [3]
  Plant response rating, Ragweed: 5
Common ragweed; [4]
  Plant response rating, Ragweed: 70
Common ragweed; [5]
  Ragweed plant response rating: 60
Common ragweed; [6]
  Plant response rating, Ragweed: 40
Common ragweed; [7]
  Plant response rating, Ragweed: 30
Common ragweed; [8]
  Plant response rating, Ragweed: 5
pigweed; [1]
  Plant response rating, Pigweed: 100
pigweed; [2]
  Plant response rating, Pigweed: 100
pigweed; [3]
  Plant response rating, Pigweed: 100
pigweed; [4]
  Plant response rating, Pigweed: 100
pigweed; [5]
  Pigweed plant response rating: 95
pigweed; [6]
  Plant response rating, Pigweed: 95
pigweed; [7]
  Plant response rating, Pigweed: 90
pigweed; [8]
  Plant response rating, Pigweed: 85
rice; 125 g ai/ha, 0 is no effect, 100 is complete control, preemergence
  Plant response rating (0 to 100 scale), Rice: 20
rice; 500 g ai/ha, visual rating, 0 = no effect, 100 = complete control, preemergence
  Plant response rating, Rice: 40
Large crabgrass; [1]
  Plant response rating, Crabgrass, Large: 75
Large crabgrass; [2]
  Plant response rating, Crabgrass, Large: 100
Large crabgrass; [3]
  Plant response rating, Crabgrass, Large: 100
Large crabgrass; [4]
  Plant response rating, Crabgrass, Large: 100
Large crabgrass; [5]
  Crabgrass, Large plant response rating: 70
Large crabgrass; [6]
  Plant response rating, Crabgrass, Large: 50
Large crabgrass; [8]
  Plant response rating, Crabgrass, Large: 30
chickweed; Postemergence, scale 0 to 100
  Chickweed plant response rating: 100
chickweed; [6]
  Plant response rating, Chickweed: 100
chickweed; [7]
  Plant response rating, Chickweed: 100
chickweed; [8]
  Plant response rating, Chickweed: 60
goosegrass; [1]
  Plant response rating, Goosegrass: 80
goosegrass; [2]
  Plant response rating, Goosegrass: 85
goosegrass; [3]
  Plant response rating, Goosegrass: 100
goosegrass; [4]
  Plant response rating, Goosegrass: 100
goosegrass; [5]
  Goosegrass plant response rating: 60
goosegrass; [6]
  Plant response rating, Goosegrass: 15
goosegrass; [7]
  Plant response rating, Goosegrass: 15
goosegrass; [8]
  Plant response rating, Goosegrass: 10

## C#CCNC(=O)c1cccc(NC(=O)c2cc(C(C)(C)C)nn2CC)c1 [Compound 47]
kochia; 62 g ai/ha, preemergence
  Plant response rating (0 = no effect, 100 = complete control), Kochia: 10
kochia; [2]
  Plant response rating, Kochia: 10
kochia; [11]
  Plant response rating, Kochia: 10
kochia; [5]
  Kochia plant response rating: 100
kochia; [12]
  Plant response rating, Kochia: 100
kochia; [6]
  Plant response rating, Kochia: 100
kochia; [13]
  Kochia plant response rating: 40
kochia; [8]
  Plant response rating, Kochia: 100
Giant foxtail; 500 g ai/ha, 0 to 100 scale, 0 no effect, 100 complete control
  Plant response rating, Foxtail, Giant: 90
Giant foxtail; [14]
  Plant response rating, Foxtail, Giant: 85
  Foxtail, Giant plant response rating: 100
Giant foxtail; 500 g ai/ha, visual rating, 0 to 100 scale (0 no effect, 100 complete control)
  Foxtail, Giant plant response rating: 90
barnyardgrass; [9]
  Barnyardgrass plant response rating: 0
barnyardgrass; 125 g ai/ha, scale of 0 to 100, 0 is no effect, 100 is complete control
  Barnyardgrass plant response rating: 0
barnyardgrass; 250 g ai/ha, scale 0 to 100 (0 no effect, 100 complete control)
  Plant response rating, Barnyardgrass: 40
barnyardgrass; [10]
  Plant response rating, Barnyardgrass: 40
velvetleaf; 62 g ai/ha, preemergence
  Plant response rating (0 = no effect, 100 = complete control), Velvetleaf: 40
velvetleaf; [2]
  Plant response rating, Velvetleaf: 40
velvetleaf; [11]
  Plant response rating, Velvetleaf: 100
velvetleaf; [5]
  Velvetleaf plant response rating: 90
velvetleaf; [6]
  Plant response rating, Velvetleaf: 80
velvetleaf; [13]
  Velvetleaf plant response rating: 100
velvetleaf; [8]
  Plant response rating, Velvetleaf: 80
Common ragweed; 62 g ai/ha, preemergence
  Plant response rating (0 = no effect, 100 = complete control), Ragweed: 80
Common ragweed; [2]
  Plant response rating, Ragweed: 80
Common ragweed; [11]
  Plant response rating, Ragweed: 100
Common ragweed; [5]
  Ragweed plant response rating: 90
Common ragweed; [6]
  Plant response rating, Ragweed: 80
Common ragweed; [13]
  Ragweed plant response rating: 100
Common ragweed; [8]
  Plant response rating, Ragweed: 70
pigweed; 62 g ai/ha, preemergence
  Plant response rating (0 = no effect, 100 = complete control), Pigweed: 100
pigweed; [2]
  Plant response rating, Pigweed: 100
pigweed; [11]
  Plant response rating, Pigweed: 100
pigweed; [5]
  Pigweed plant response rating: 100
pigweed; [6]
  Plant response rating, Pigweed: 100
pigweed; [13]
  Pigweed plant response rating: 100
pigweed; [8]
  Plant response rating, Pigweed: 100
Large crabgrass; 62 g ai/ha, preemergence
  Plant response rating (0 = no effect, 100 = complete control), Crabgrass, Large: 100
Large crabgrass; [2]
  Plant response rating, Crabgrass, Large: 100
Large crabgrass; [11]
  Plant response rating, Crabgrass, Large: 100
Large crabgrass; [5]
  Crabgrass, Large plant response rating: 90
Large crabgrass; [13]
  Crabgrass, Large plant response rating: 100
Large crabgrass; [8]
  Plant response rating, Crabgrass, Large: 90
chickweed; Postemergence, scale 0 to 100
  Chickweed plant response rating: 100
chickweed; [12]
  Plant response rating, Chickweed: 90
chickweed; [6]
  Plant response rating, Chickweed: 90
chickweed; [8]
  Plant response rating, Chickweed: 90
goosegrass; 62 g ai/ha, preemergence
  Plant response rating (0 = no effect, 100 = complete control), Goosegrass: 80
goosegrass; [2]
  Plant response rating, Goosegrass: 100
goosegrass; [11]
  Plant response rating, Goosegrass: 100
goosegrass; [5]
  Goosegrass plant response rating: 80
goosegrass; [12]
  Plant response rating, Goosegrass: 60
goosegrass; [6]
  Plant response rating, Goosegrass: 60
goosegrass; [13]
  Goosegrass plant response rating: 100
goosegrass; [8]
  Plant response rating, Goosegrass: 50

## C#CCn1nc(C(C)(C)C)cc1C(=O)Nc1cccc(C(=O)NCC)c1 [Compound 50]
kochia; 62 g ai/ha, preemergence
  Plant response rating (0 = no effect, 100 = complete control), Kochia: 30
kochia; [2]
  Plant response rating, Kochia: 85
kochia; [11]
  Plant response rating, Kochia: 100
kochia; [5]
  Kochia plant response rating: 10
kochia; [12]
  Plant response rating, Kochia: 10
kochia; [6]
  Plant response rating, Kochia: 10
kochia; [13]
  Kochia plant response rating: 100
kochia; [8]
  Plant response rating, Kochia: 0
velvetleaf; 62 g ai/ha, preemergence
  Plant response rating (0 = no effect, 100 = complete control), Velvetleaf: 0
velvetleaf; [2]
  Plant response rating, Velvetleaf: 5
velvetleaf; [11]
  Plant response rating, Velvetleaf: 5
velvetleaf; [5]
  Velvetleaf plant response rating: 100
velvetleaf; [6]
  Plant response rating, Velvetleaf: 100
velvetleaf; [13]
  Velvetleaf plant response rating: 5
velvetleaf; [8]
  Plant response rating, Velvetleaf: 100
Common ragweed; 62 g ai/ha, preemergence
  Plant response rating (0 = no effect, 100 = complete control), Ragweed: 10
Common ragweed; [2]
  Plant response rating, Ragweed: 40
Common ragweed; [11]
  Plant response rating, Ragweed: 80
Common ragweed; [5]
  Ragweed plant response rating: 85
Common ragweed; [6]
  Plant response rating, Ragweed: 85
Common ragweed; [13]
  Ragweed plant response rating: 100
Common ragweed; [8]
  Plant response rating, Ragweed: 80
pigweed; 62 g ai/ha, preemergence
  Plant response rating (0 = no effect, 100 = complete control), Pigweed: 90
pigweed; [2]
  Plant response rating, Pigweed: 90
pigweed; [11]
  Plant response rating, Pigweed: 95
pigweed; [5]
  Pigweed plant response rating: 100
pigweed; [6]
  Plant response rating, Pigweed: 100
pigweed; [13]
  Pigweed plant response rating: 95
pigweed; [8]
  Plant response rating, Pigweed: 50
rice; Preemergence, 500 g ai/ha, scale 0 to 100
  Rice plant response rating: 50
rice; preemergence, 125 g ai/ha, 0 to 100 scale, 0 is no effect, 100 is complete control
  Plant response rating, Rice: 10
Large crabgrass; 62 g ai/ha, preemergence
  Plant response rating (0 = no effect, 100 = complete control), Crabgrass, Large: 0
Large crabgrass; [2]
  Plant response rating, Crabgrass, Large: 0
Large crabgrass; [11]
  Plant response rating, Crabgrass, Large: 20
Large crabgrass; [5]
  Crabgrass, Large plant response rating: 0
Large crabgrass; [12]
  Plant response rating, Crabgrass, Large: 0
Large crabgrass; [6]
  Plant response rating, Crabgrass, Large: 0
Large crabgrass; [13]
  Crabgrass, Large plant response rating: 80
Large crabgrass; [8]
  Plant response rating, Crabgrass, Large: 0
chickweed; Postemergence, scale 0 to 100
  Chickweed plant response rating: 0
chickweed; [12]
  Plant response rating, Chickweed: 0
chickweed; [6]
  Plant response rating, Chickweed: 0
chickweed; [8]
  Plant response rating, Chickweed: 0
goosegrass; 62 g ai/ha, preemergence
  Plant response rating (0 = no effect, 100 = complete control), Goosegrass: 40
goosegrass; [2]
  Plant response rating, Goosegrass: 80
goosegrass; [11]
  Plant response rating, Goosegrass: 100
goosegrass; [12]
  Plant response rating, Goosegrass: 30
goosegrass; [6]
  Plant response rating, Goosegrass: 90
goosegrass; [13]
  Goosegrass plant response rating: 100
goosegrass; [8]
  Plant response rating, Goosegrass: 30
